Series [1] deals with genetically hypertensive rats (SHR). Description: The hypobaric hypoxia test. The series is classed as in vivo, rat (genetically hypertensive. As to conditions: Rattus norvegicus, 1 h; male SHR rats; 22.66 kPa; one hour after administration; protected = survival time 30% longer than control. From the text:
The antihypoxic effect of the target compounds was studied on genetically hypertensive rats (SHR), which are particularly sensitive to hypoxic insults. Male rats weighing 210 to 230 g each were used for these experiments.
The hypobaric hypoxia test
The experimental animals were placed in pairs in a desiccator of 6 liters volume one hour after administration of the compound to be tested. The pressure in the desiccator was decreased to 22.66 kPa (170 mmHg) during 20 seconds. The time elapsing from this point until the last respiratory movement was measured. An animal was considered to be protected when its survival time was by 30% longer in comparison with the control group.

The subject of series [2] is Potassium-stimulated Ca uptake, synaptosomes prepared from rat brain. In words: Inhibition of potassium-stimulated calcium uptake into rat brain synaptosomes. The note with it: for IC50: read-out: Inhibition of Potassium-stimulated Ca uptake IC50, 60 mmoles/l KCl, rat synaptosomes, pH 7.4, 37° C., 20 seconds.
Text: (§1) The calcium uptake-inhibitory effect of the compounds of the formula (I) according to the invention was studied on synaptosomes prepared from rat brain by using a method described in J. Neurochem.
(§2) Wistar rats weighing 180 to 200 g were decapitated and the brains were collected in ice-cold physiological saline, the cortex was removed and purified from the white matter. The tissue was homogenized by a glass-teflon potter in 10 volumes of a saccharose solution of 0.32 moles/liter concentration. The homogenate was centrifuged at 1000×g in a Janetzki K-70 centrifuge at 4° C. for 10 minutes, the supernatant was centrifuged at 12000×g in a Hitachi CR-26H centrifuge at 4° C. for 20 minutes. The sediment was suspended in a saccharose solution of 0.32 moles/liter concentration, then the protein content of the preparation was adjusted to 20 mg/ml.
Components of the solution used for incubation were as follows:
Incubation solution was saturated with oxygen containing 5% by volume of carbon dioxide until reaching a pH value of 7.4. The test compounds and the synaptosome preparation in an amount corresponding to 1 mg of protein were added into the incubation solution. The final volume of incubation was 1 ml. The samples were pre-incubated at 37° C. for 20 minutes.
The calcium uptake was initiated by addition of a 45CACl2 solution of 2.8 kBq (75 nCi) activity. Potassium chloride was used in a concentration of 60 mmoles/l for the investigation of potassium-stimulated calcium uptake; sodium chloride was added in the same concentration to the control samples.
The incubation time was 20 seconds. The reaction stopped by adding 5 ml of a stopping solution containing 120 mmoles/l of sodium chloride, 5 mmoles/l of potassium chloride, 5 mmoles/l of EGTA [ethylene glycol bis(β-aminoethyl)ether-N,N, N',N'-tetraacetic acid]and 20 mmoles/l of TRIS (pH 7.4).
A further series in a line: Oral toxicity (LD50). The note with it: in vivo.
Series [3] has as its system Veratrine-stimulated Ca uptake, synaptosomes prepared from rat brain. The format is biochemical, rat (Wistar).
Text: as §1, §2
Components of the solution used for incubation were as follows: […]
After placing the filter disks in glass cuvets, 10 ml of scintillation cocktail [containing 1000 ml of toluene, 400 ml of abs. ethanol, 10 ml of dioxane, 6 g of 2,5-diphenyloxazole and 0.15 g of 1,4-bis(5-phenyl-2-oxazolyl)benzene] and the radioactivity of the samples was measured by using an 1219 Rackbeta type liquid scintillation spectrophotometer (product of LKB Wallace Company).
Series [4] deals with excitatory amino acid receptor-dependent calcium channels. The note with it: literature; cited from earlier work.
Where [5] appears, read: qualitative / comparison with reference drug.

Broadly, the ED50 is the midpoint of the dose-response relation. A lower ED50 goes with greater potency. Broadly, the IC50 is the concentration that inhibits the measured activity by half. Regarding `COCCOC(=O)C1=C(C)NC(C)=C(C(=O)OC(C)C)C1c1cccc([N+](=O)[O-])c1` (stereo not shown) [nimodipine, isopropyl 2methoxyethyl 1,4dihydro-2,6-dimethyl-4-(mnitrophenyl)-3,5-pyridinedicarboxylate, reference compound], the ED50 in series [1] was 8 mg/kg. Moreover, the half-maximal inhibitory concentration (IC50) in series [2] was found to be 208 µM.
`Fc1ccc(C(c2ccc(F)cc2)N2CCN(C/C=C/c3ccccc3)CC2)cc1` [flunarizine] registered an ED50 in series [1] of 50 mg/kg.
A word on the LD50: it is the dose expected to kill half of the subjects tested. A lower LD50 goes with a more toxic substance. As to `COc1cc2c(cc1OCc1ccccc1)CCN1C(=Nc3ccc(C)cc3)OCCC21.Cl` (stereo not shown) [compound 1507136, 9-benzyloxy-10-methoxy-4-(p-tolylimino)-1,6,7,11b-tetrahydro-2H,4H-1,3-oxazino[4,3-a]isoquinoline hydrochloride], in series [1], it took a dose of 8 mg/kg to reach the 50% effect level (ED50). The compound also yielded an LD50 in “Oral toxicity (LD50)” of 1400 mg/kg. Further, the “potassium-induced calcium uptake inhibitory effect (in words)” value in series [2] (setting [5]) was “exceeds that of cinnarizine”. Further, the half-maximal inhibitory concentration (IC50) was determined as 23.9 µM in series [2] and 0.29 µM in series [3] (veratrine 20 μmoles/l, rat synaptosomes, pH 7.4, 37° C., 20 seconds, read-out: Inhibition of Veratrine-stimulated Ca uptake IC50). Besides, the “veratrine-induced calcium uptake inhibitory effect (in words)” value in series [3] (setting [5]) is reported as “to a higher degree than flunarizine did”.
Regarding `C[C@]12N[C@H](Cc3ccccc31)c1ccccc12` [MK-801, (+)-5-methyl-10,11-dihydro-5H-dibenzo[a,d]cyclohepten-5,10-imine], the “effect on excitatory amino acid receptor-dependent calcium channels (in words)” value in series [4] was “inhibit the excitatory amino acid receptor-dependent calcium channels”.

Values taken from US5494909A, “Substituted oxazinoisoquinoline derivatives, pharmaceutical compositions containing them and process for preparing same” (priority 1991, dated 1996).
